Data set [1] deals with soybean glufosinate-resistant cultivar (CDZ 4938). Kind of data set: Low-tunnel field trial of dicamba volatilization, visible injury to soybean bioindicator (2020). It is filed as in vivo. How it is done:
To further evaluate the efficacy of potassium tetraborate tetrahydrate in reducing volatilization of dicamba, a series of low-tunnel trials were conducted in Fayetteville, Arkansas in 2020, with each trial replicated twice. Experimental treatments were arranged as a single-factor randomized complete block design with three replications. […] A glufosinate-resistant cultivar (CDZ 4938) was planted on 36-inch spaced rows, serving as a bioindicator to quantify visible injury and distance traveled caused by dicamba volatility. Each low-tunnel placed in the field measured 5 by 20 ft (covering two rows of soybean). All tunnels were covered with transparent plastic to create an environment suitable for volatility and to contain the injury. After all tunnels were placed in the field, moistened flats of soil were placed 0.5 miles from the field and treated. Once treated, two flats were placed into appropriate tunnels between two rows of soybean with one flat on either side of a high-volume air sampler located in the center of each tunnel for 48 hours. Afterwards, the flats of soil, air samplers and tunnels were removed from the field. Immediately following trial initiation, pH of each spray solution was collected and analyzed. For data collection, soybean under each tunnel were divided into […] of 5 foot in length where visible injury was assessed on a 0 to 100 scale, where 0 equals no injury and 100 equals plant death. […] All data were subjected to analysis of variance and means separated using Fisher's protected least significance test (α=0.05)

A short description of data set [2]: pH of tank mix, 2019 field trial. The format is physicochemical. How it is done: (§1) A field trial was conducted to determine the effect of adding potassium borate to the herbicide dicamba with respect to the volatilization of dicamba and the movement of dicamba within the environment. In this trial, potassium borate was added to two highly volatile formulations of dicamba, Clarity® (BASF) and Clash™ (Nufarm Americas, Inc), in combination with glyphosate (Roundup PowerMax II®). […] The formulations were applied to a moistened silt loam soil in contained in two plastic trays and placed under 20-foot long tunnels between two rows of dicamba-sensitive (i.e., non-tolerant) soybean crop. […] Soybean injury was visually assessed at 14 and 21 days after initiation of the experiment. Likewise, the distance from the center of the tunnel to the furthest observed 5% level of injury was measured. Air samplers in the center of each tunnel were also used to quantify dicamba volatilization. […]
(§2) In order to evaluate a proprietary volatility reducing agent on several dicamba formulations, two low-tunnel trials were conducted in Fayetteville, Arkansas in 2019. […] Dicamba products evaluated included the diglycolamine (DGA) salt of dicamba (Xtendimax) plus a commercial volatility reduction agent (VaporGrip), DGA salt of dicamba (Clarity) with the volatility reduction agent BK3O3, the dimethylamine (DMA) salt of dicamba (Vanquish), and the DMA salt with BK3O3 along with a nontreated. […]

Data set [3] relates to dicamba-sensitive soybean. Kind of data set: Low-tunnel field trial of dicamba volatilization, injury to dicamba-sensitive soybean (2019). It is filed as in vivo. The conditions noted are these: FIG. 1. How it is done: as §1, §2
The conditions of data set [4]: Kborate concentration of 0.025 molar, even when mixed with the potassium salt of glyphosate. The protocol:
To further evaluate the efficacy of potassium tetraborate tetrahydrate in reducing volatilization of dicamba, a series of low-tunnel trials were conducted in Fayetteville, Arkansas in 2020, with each trial replicated twice. Experimental treatments were arranged as a single-factor randomized complete block design with three replications. […] A glufosinate-resistant cultivar (CDZ 4938) was planted on 36-inch spaced rows, serving as a bioindicator to quantify visible injury and distance traveled caused by dicamba volatility. Each low-tunnel placed in the field measured 5 by 20 ft (covering two rows of soybean). All tunnels were covered with transparent plastic to create an environment suitable for volatility and to contain the injury. After all tunnels were placed in the field, moistened flats of soil were placed 0.5 miles from the field and treated. Once treated, two flats were placed into appropriate tunnels between two rows of soybean with one flat on either side of a high-volume air sampler located in the center of each tunnel for 48 hours. […] Immediately following trial initiation, pH of each spray solution was collected and analyzed. For data collection, soybean under each tunnel were divided into eight quadrants of 5 foot in length where visible injury was assessed on a 0 to 100 scale, where 0 equals no injury and 100 equals plant death. […]

For `CP(=O)(O)CCC(N)C(=O)O` (stereo not shown) [glufosinate, 2-amino-4-[hydroxy(methyl)phosphoryl]butanoic acid, reference compound], the “average visual injury to soybean in comparison to dicamba plus glyphosate” value in data set [1] (glufosinate mixed with dicamba, FIG. 11, 21 days after treatment) is recorded as “increased average visual injury”.

For `[K+].[K+].[K+].[O-]B([O-])[O-]` [potassium borate], in data set [2] (potassium borate 30 g/L added to various formulations of dicamba mixed with glyphosate), the “increase in tank mix pH” value is 1.9-2.15. Further, in data set [2] (potassium borate added to tank mixes comprising glyphosate and various formulations of dicamba), the “increase of pH of tank mixes” value is reported as at most 2.15 pH units. Besides, in data set [3] (potassium borate 30 g/L added, compared to standard tank mixes of dicamba or dicamba+glyphosate), the “reduction of sensitive soybean injury” value is at most 18%. In addition, in data set [3] (potassium borate added to dicamba, compared to standard tank mixes of dicamba), the “reduction of injury to sensitive soybean” value is reported as at most 18 percentage points.

Take “potassium tetraborate tetrahydrate [Kborate]”: in data set [4], the “pH of the spray solution” value is on record as “above 6.0”. Moreover, the “reducing volatility of dicamba based on injury to soybean, compared with Kacetate” value in data set [1] (0.015 molar concentration of Kborate) is listed as “comparable to 0.05 moles of Kacetate”. Also, the “reducing volatility of a dicamba plus glyphosate mixture, compared with Kacetate” value in data set [1] (FIGS. 8-10, 21 days after treatment) is listed as “outperformed Kacetate”. The “dicamba volatility of dicamba and glufosinate mixtures” value in data set [1] (Kborate added, FIGS. 11-13, 21 days after treatment) is reported as “reduced dicamba volatility, more so than did Kacetate”. The “volatilization of a dicamba plus glyphosate mixture based on average and maximum injury ratings and distance to 5% injury to soybean” value in data set [1] (Kborate concentrations of 0.0125 molar or higher, 21 days after treatment, FIGS. 5-7) was “significantly reduced volatilization”.

Source of the values: patent publication US12022827B2, “Compositions and methods to reduce dicamba volatility and provide plant essential nutrients” (THE BOARD OF TRUSTEES OF THE UNIVERSITY OF ARKANSAS, priority 2019, dated 2024).
